According to publication PMC9706920, “Aryloxypropanolamine targets amyloid aggregates and reverses Alzheimer-like phenotypes in Alzheimer mouse models” (Alzheimer's Research & Therapy, 2022):

Key:
Aβ(1–42) = biological target: T1, Aβ(1–42) (Homo sapiens, UniProt P05067); experiment: ThT fluorescence Aβ(1–42) aggregation inhibition assay; assay type: biochemical; conditions: compounds at 0.5, 5, 50, 500 μM co-incubated with monomeric Aβ(1–42) 25 μM, 37°C, 3 days; concentration of the printed value not stated
T1 construct: Synthesized monomeric Aβ(1–42), […]; […]; IA; made in house; host or cells: chemical synthesis (Fmoc solid phase peptide synthesis)
T1 sequence (P05067 672-713 limits assumed): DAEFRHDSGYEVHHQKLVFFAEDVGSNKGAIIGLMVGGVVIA
Experimental: ThT fluorescence was used to assess the in vitro inhibition of Aβ(1–42) and disaggregation of Aβ(1–42), Aβ(1–40), Aβ(pE3-42), recombinant tau K18, and tau repeats R1, R2, R3, R4 by YIAD compounds. In house synthetic Aβ(1–42) was dissolved in DMSO (1 mM, 100% DMSO) and diluted to 20-fold in deionized water to make 50 μM Aβ(1–42) stocks (5% DMSO). YIAD compounds were first dissolved in DMSO (100 mM, 100% DMSO) and serially diluted with deionized water to make YIAD stocks with concentrations of 1, 10, 100, and 1000 μM (10% DMSO). For the Aβ(1–42) inhibition assay, monomeric Aβ(1–42) stocks and YIAD stocks were co-incubated at 37°C for 3 days. For Aβ(1–42) disaggregation assay, monomeric Aβ(1–42) stocks were preincubated at 37°C for three days to form Aβ(1–42) aggregates, and subsequently, YIAD stocks were added for an additional 3 days. For Aβ(1-40) disaggregation assays, Aβ(1–40) (50 μM, 5% DMSO) was preincubated at 37°C for 3 days to induce aggregation, and co-incubated with YIAD001 and YIAD002 for an additional 3 days. For Aβ(pE3-42) disaggregation assays, in house synthetic Aβ(pE3-42) (50 μM, 5% DMSO) was preincubated at 37°C for 1 day and co-incubated with YIAD002 for an additional 3 days. For tau K18 disaggregation assay, recombinant tau K18 fragments (35 μM) were dissolved in PBS with 0.1 mg/mL of heparin and 100 μM of DTT, then pre-aggregated at 37°C for 3 days. Then, YIAD stocks were added to aggregated K18 fragments for an additional 3 days. For tau repeat disaggregation assays, tau repeats (R1, R2, R3, R4) (35 μM) were dissolved in PBS with 0.1 mg/mL of heparin and 100 μM of DTT, then pre-aggregated at 37°C for 1 day. Then, YIAD002 was added to aggregated repeats for an additional 3 days. Prior to fluorescence intensity measurement, ThT solution (5 μM) was prepared by dissolving ThT, purchased from Sigma-Aldrich (MO, USA) in 50 mM glycine buffer (pH 8.5). To quantify the effect of inhibition and disaggregation, 25 μL of all samples and 75 μL of ThT solution were loaded into a half-area 96-well black plate in triplicate.

Aβ(1–42) aggregates = biological target: T2, Aβ(1–42) aggregates (Homo sapiens, UniProt P05067); experiment: SDS-PAGE with PICUP and silver staining; assay type: biochemical; conditions: 500 μM compound, aggregated Aβ(1–42)
T2 construct: made in house; host or cells: chemical synthesis (Fmoc solid phase peptide synthesis)
T2 sequence (P05067 672-713 limits assumed): as above
Experimental: SDS-PAGE with photo-induced cross-linking of unmodified proteins (PICUP) and silver staining was used to evaluate the disaggregating effects of YIAD001 and YIAD002 by visualizing the size distributions and band intensity of Aβ(1–42). Samples were prepared under the same conditions as the Aβ(1–42) disaggregation ThT fluorescence assay. Amyloid proteins in the samples from the aforementioned disaggregation assay were subjected to cross-linking, initiated by irradiation (three exposures, each for 1 second) in the presence of tris(2,2′-bipyridyl)dichlororuthenium(II) hexahydrate (Ru(Bpy)) (1 mM) and 1 μL of ammonium persulfate (20 mM). Reactions were immediately quenched with β-mercaptoethanol and boiled for 5 min at 95°C. After cross-linking the samples, we separated amyloid species by SDS-PAGE on a 15% tris-tricine gel and performed silver staining according to the PlusOne Silver Staining kit protocol (GE Healthcare, USA).

5XFAD mice = experiment: 6E10 immunohistochemical staining of amyloid plaques in 5XFAD mice after oral administration; assay type: in vivo, mouse; conditions: 50 mg/kg/day via drinking water, 5 weeks, 4.5-month-old female 5XFAD mice, vs vehicle
Experimental: To test the in vivo efficacy of YIAD001 and YIAD002, female 5XFAD mice (n = 25) and female wildtype mice (n = 7) were assessed at the age of 4.5 months. YIAD compounds were dissolved in DMSO and diluted in drinking water to a final concentration of 50 mg/kg/day (5% DMSO, 5% Tween) for oral administration. The three compounds, YIAD001, YIAD002, and YIAD003, were freely administered via drinking water to 4.5-month-old 5XFAD mice (n = 6 for each group) for 5 weeks. As a control, 5% DMSO, 5% Tween in drinking water was provided ad libitum to littermate 5XFAD mice (n = 7) and wildtype mice (n = 7) for 5 weeks.
After the administration period, the mice were deeply anaesthetized with 4% avertin through intraperitoneal injection and transcardially perfused with 0.9% saline. Subsequently, the mice were sacrificed for brain excision. Each collected brain was divided through the mid-sagittal section; the hippocampal and cortical regions were dissected from one half and stored at −80°C for subsequent brain lysates, while the other half was immersed in 4% paraformaldehyde (pH 7.4) for 24 h and 30% sucrose for 48 h at 4°C and subsequently deep-froze at −80°C for immunohistochemistry.
Coronal hippocampal sections of 5XFAD mice brains (35 μm) were cut with a Cryostat (Leica, CM1860) and mounted onto glass slides. Antigen retrieval was performed by submerging slides in 1% SDS and unspecific binding was blocked through incubation in 20% horse serum in PBS for 1 h at RT. Aβ deposits were visualized through immunolabeling by anti-6E10 antibody (1:200 in PBS with 5% horse serum, Biolegend 803003) and detection by fluorescent secondary antibody (1:200 in PBS, IgG Alexa 488). Brain sections were additionally stained with Hoechst 33342. Fluorescent images of the brain sections were taken on a Leica DM2500 fluorescence microscope. Amyloid plaques were quantified using Image-J software (NIH).

Row | Structure (SMILES) | Inhibition of Aβ(1–42) fibrillation (ThT fluorescence) (Aβ(1–42)) | Size distribution of Aβ(1–42) bands (fibrils, monomers) (Aβ(1–42) aggregates) | Number of 6E10-stained plaques (5XFAD mice) | melting point | Plaque area (5XFAD mice)
1 | CCC(C)(C)c1ccc(OCC(O)CN2CCOCC2)c(C(C)(C)CC)c1.Cl (stereo not drawn) [YIAD001, 4-(3-(2,4-Di-tert-pentylphenoxy)-2-hydroxypropyl)morpholin-4-ium chloride] | 82.55% | reduced fibrils and increased monomers | significantly reduced | 192.5 to 193.1 °C | –
2 | CCC(C)(C)c1ccc(OCC(O)CN2CCCC2)c(C(C)(C)CC)c1.Cl (stereo not drawn) [YIAD002, 1-(3-(2,4-Di-tert-pentylphenoxy)-2-hydroxypropyl)pyrrolidin-1-ium chloride] | 98.15% | reduced fibrils and increased monomers | significantly reduced | 179.8 to 180.7 °C | significant decrease
